In test [1] the test system is Synechocystis PDS with mutation corresponding to Leu^542→Arg. The note with it: prior work; cited from earlier work.
The subject of test [2] is Hydrilla PDS Arg^304 → Lysine. Kind of test: Fluridone enzyme inhibition assay, non-His-tagged PDS (Table 1). The class given is biochemical, Hydrilla verticillata. The note with it: relative to Arginine. The method, then:
(§1) The expression constructs in Table 1 were derived from an original clone of the susceptible PDS gene from Hydrilla and then the Arg^304 was mutated to the listed amino acid. Expression was under the control of the lac promoter […] with the initiation codon of the LacZalpha-ccdB gene in the pCR4-TOPO vector (Invitrogen Inc., CA, Cat. #K4575-01).
(§2) All mutagenesis was performed, unless stated otherwise, using the TOPO-vector containing the wildtype (H4) PDS-sequence, which was extracted from an overnight culture with the Qiagen Plasmid Prep Kit as described above. The amount of the extracted plasmid was diluted to 10 ng/μl and used as template in a mutagenesis-procedure using the QuikChange Site-directed Mutagenesis Kit (Stratagene, Calif., #200518). The design of the mutagenesis-primers was conducted according to the manufacturers protocol to enable the specific change of Arg^304-codon to code for the desired amino acid. Primers (purchased from MWG-Biotech) and their introduced amino acid change are listed below with the changed codon underlined:
(§3) The reactions were performed according to the manufacturers protocol. Reactions were set up in MicroAmp-tubes on ice with 38 μl ddH2O, 5 μl 10× reaction buffer, 2 μl plasmid (10 ng/μl), 1.25 μl forward-mutagenesis primer (100 ng/μl), 1.25 μl of reverse mutagenesis primer (100 ng/μl), 1 μl dNTP-mix and 1 μl PfuTurboDNA polymerase (2.5 U/μl). The reactions were placed in a PE 9700 thermal cycler and heated to 95° C. for 30 sec followed by 12 rounds at 95° C. for 30 sec, 55° C. for 1 min and 68° C. for 12 min. The PCR was followed by a DpnI-digestion and transformation in XL1-Blue supercompetent cells as described in the manual. 4-6 resulting colonies were grown overnight in LB-medium with kanamycin and plasmid DNA was isolated as described above. The plasmid was used as template for sequencing with M13 and internal PDS-primers as described above on a LiCOR-system. Sequences were assembled and analyzed using Seqman. Introduced mutations were identified and plasmids carrying the desired mutation(s) were transferred into competent TOP10-cells, using the transformation protocol from the TOPO TA Cloning Kit. Resulting colonies were grown overnight in Wu-broth with kanamycin, aliquoted and stored at −80° C. until further use. 1 ml of Wu-cultures was used to start 1-L LB-cultures with kanamycin as described before, to express active PDS-enzyme for testing as described.
(§4) Phytoene desaturase activity and its inhibition by herbicides was determined using an in vitro system using components derived from the in vivo production of phytoene and phytoene desaturase proteins. All mutations described in Examples 3 and 4 were tested. […] The clones were used for the heterologous expression of Hydrilla-PDS-enzyme. In particular, bacterial cultures were grown from single colonies overnight in Wu-broth (6.27 g/L K2HPO4, 1.8 g/L KH2PO4, 0.5 g/L Na-citrate, 0.9 g/L (NH4)2SO4, 10 g/L tryptone, 5 g/L yeast extract, 10 g/L NaCl, 44 ml/L glycerol, 0.1 mM MgSO4, pH 7.2) with kanamycin. 1-mL was aliquoted in centrifuge tube and stored at −80° C. For expression, 1 L LB-medium with kanamycin was inoculated with 1-mL Wu-culture and grown for 24 h at 37° C. to stationary phase with shaking at 200 rpm. The cells were collected by centrifugation at 2000×g. All of the following steps were done at 4° C. unless otherwise noted. Active soluble PDS enzyme was extracted by lysing the transformed E. coli cells using a French Press at 20,000 psi in assay buffer consisting of 100 mM Tris-HCl, pH 7.2, 10 mM magnesium-chloride, 0.1 mM NADP, 0.1 mM FAD, 10 mM cysteine, 5 mM DTT, 1 mM aminocaproic acid, and 1 μg/ml leupeptin. The soluble fraction containing PDS activity was obtained by centrifugation for 10 min at 1200×g. After 24 h they were centrifuged down and used in PDS enzyme activity assays as described below.

Test [3] relates to Hydrilla PDS Arg^304 → Isoleucine. Described as above. The class given is biochemical, Hydrilla verticillata. The note with it: relative to Arginine. As for the experimental part:
as §1, §2, §3, §4

Test [4] concerns Hydrilla PDS Arg^304 → Tyrosine. The test is described as above. The note with it: relative to Arginine. The format is biochemical, Hydrilla verticillata. The method, then: as §1, §2, §3, §4
Test [5] concerns Hydrilla PDS Arg^304 → Valine. The test is described as above. The class given is biochemical, Hydrilla verticillata. The note with it: relative to Arginine. The method, then:
as §1, §2, §3, §4

The subject of test [6] is Hydrilla PDS Arg^304 → Glycine. The test is described as above. The format is biochemical, Hydrilla verticillata. Conditions: relative to Arginine. As for the experimental part: as §1, §2, §3, §4
In test [7] the test system is Hydrilla PDS Arg^304 → Asparagine. The description is as above. The class given is biochemical, Hydrilla verticillata. Conditions: relative to Arginine. As for the experimental part: as §1, §2, §3, §4
The test system of test [8] is Hydrilla PDS Arg^304 → Alanine. The test is described as above. Conditions: relative to Arginine. The format is biochemical, Hydrilla verticillata. As for the experimental part:
as §1, §2, §3, §4

Test [9] has as its system Hydrilla PDS Leu^542 → Arg. Briefly: Fluridone enzyme inhibition assay, other substitutions (Table 3). The format is biochemical, Hydrilla verticillata. As for the experimental part: (§5) To explore whether mutations at positions other than 304 of the hydrilla PDS enzyme and corresponding positions of other plant PDS enzymes also confer herbicide resistance, mutations discovered in Synechococcus strain PCC7942 (Leu^320→Pro; Val^403→Gly; Leu^436→Arg) were introduced into the hydrilla PDS sequence at the corresponding locations, and the resulting PDS enzymes tested for resistance.
as §4
(§6) Generally, PDS protein fractions prepared as described above (Non-His-tagged and His-tagged) were mixed with a soluble fraction from phytoene-producing E. coli cells. […]

For test [10], the system named is Hydrilla PDS Leu^425 → Pro. The test is described as above. The class given is biochemical, Hydrilla verticillata. The method, then: as §5, §4, §6
For test [11], the system named is Hydrilla PDS Val^509 → Gly. Described as above. The format is biochemical, Hydrilla verticillata. The method, then:
as §5, §4, §6

Regarding Fluridone, in [1], the “resistance provided by the mutation” value is on record as “failed to provide resistance”. In addition, the R/S in test [2] is recorded as 5; in [3] it was 10; in [4], 4; in test [5], 11; in test [6] it was 3.2; in [7], 3.2. For the same substance, the R/S in test [8] is on record as 22.5; in test [9] it was 4.5; in test [10], 1.6; in [11], 14.5.

The record behind these values is patent publication US20110098180A1, “Herbicide-Resistant Plants, And Polynucleotides And Methods For Providing Same” (United States Department of Agriculture, priority 2002, published 2011).
